The results in this text go back to ChEMBL document CHEMBL1140643, “Synthesis of 4-phenoxybenzamide adenine dinucleotide as NAD analogue with inhibitory activity against enoyl-ACP reductase (InhA) of Mycobacterium tuberculosis” (Bioorg Med Chem Lett, 2007).

pIC50: −log10 of the molar value.

Experiment [1] addresses T1, Enoyl-[acyl-carrier-protein] reductase [NADH] (Mycobacterium tuberculosis) (UniProt P9WGR1).
T1 sequence (whole entry): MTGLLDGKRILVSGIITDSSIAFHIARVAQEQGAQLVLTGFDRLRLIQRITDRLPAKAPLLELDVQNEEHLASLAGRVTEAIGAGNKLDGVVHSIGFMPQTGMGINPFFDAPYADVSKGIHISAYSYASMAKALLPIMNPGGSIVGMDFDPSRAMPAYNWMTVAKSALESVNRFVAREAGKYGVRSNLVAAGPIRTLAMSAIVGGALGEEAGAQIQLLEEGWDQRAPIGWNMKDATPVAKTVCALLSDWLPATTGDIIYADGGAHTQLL
As to the kind of experiment: Inhibition of Mycobacterium tuberculosis InhA at 100 uM.

Experiment [2] deals with T1, Enoyl-[acyl-carrier-protein] reductase [NADH] (Mycobacterium tuberculosis). Nature of the experiment: Inhibition of Mycobacterium tuberculosis InhA at 700 uM.
The target in experiment [3] is T2, Enoyl-[acyl-carrier-protein] reductase [NADH] (Mycobacterium tuberculosis, UniProt P9WGR1).
T2 sequence (P9WGR1 whole entry): T1 sequence (whole entry)
Nature of the experiment: Inhibition of Mycobacterium tuberculosis InhA.

The compound `NC(=O)c1cc([C@@H]2O[C@H](COP(=O)(O)O)[C@@H](O)[C@H]2O)ccc1Oc1ccccc1` came in with an inhibition in experiment [1] of 12%.
In turn, `NC(=O)c1cc([C@@H]2O[C@H](CO)[C@@H](O)[C@H]2O)ccc1Oc1ccccc1` had an inhibition in experiment [2] of 25%.
In experiment [3], `NC(=O)c1cc([C@@H]2O[C@H](COP(=O)(O)OP(=O)(O)OC[C@H]3O[C@@H](n4cnc5c(N)ncnc54)[C@H](O)[C@@H]3O)[C@@H](O)[C@H]2O)ccc1Oc1ccccc1` had a pIC50 of 4.57.
